{"source": "patent US12332198B2", "about": "“Metabolite based diagnostics for periprosthetic joint infection” (priority 2022, dated 2025)", "key": {"P. aeruginosa PAO1": {"tested_on": "P. aeruginosa PAO1", "assay": "Microtiter plate assay: planktonic growth (OD600) and crystal violet staining of biofilm (OD590)", "type": "cell-based, Pseudomonas aeruginosa", "description": "Cadaverine (Sigma Aldrich) 5- or 10-mM stocks were prepared in LB and sterile filtered with a […] filter. […] […] Outer edge wells were filled with PBS to avoid “edge effects” due to evaporation. OD600 was measured to quantify planktonic growth. Liquid media was gently aspirated, and wells were washed three times with 150 μL PBS. Adhered biofilm was stained with 125 μL of 0.1% crystal violet (CV) in 20% ethanol in ddH2O (v/v) for 30 min. CV was gently aspirated, wells were washed five times with 150 μL PBS, and CV was solubilized with 150 μL 33% glacial acetic acid in ddH2O (v/v) by shaking gently at 100 rpm at room temperature for 25 min. CV was quantified at OD590 to report biofilm accumulation. LB blanks were averaged and subtracted from readings. Control PAO1 wells were averaged, and all measurements were normalized to control measurements per plate and reported as percent change from control."}, "[1]": {"tested_on": "P. aeruginosa PAO1 biofilm", "assay": "Confocal laser scanning microscopy (CLSM) of biofilm accumulation", "type": "cell-based, Pseudomonas aeruginosa", "details": "3.30 mM cadaverine, 24 hrs, SYTO 9, n=5", "description": "PAO1 overnight cultures were diluted to OD600=0.17 in LB with 0 or 3.30 mM cadaverine in 35×10 mm confocal dishes and incubated statically at 37° C. in 5% CO2 for 24 hrs. Liquid media was aspirated and adhered biofilm was stained with SYTO 9 for 10 min and washed with PBS. CLSM stitched images were collected (n=5) with a laser power of 4.5% under 10× magnification using an Olympus FluoView FV10i CLSM. Mean gray scale value and surface area coverage were quantified using Fiji."}, "PAO1 Td-tomato or Xen41": {"tested_on": "PAO1 Td-tomato or Xen41", "assay": "Culture imaging by photo, dissecting microscope and IVIS (biofilm morphology)", "type": "cell-based, Pseudomonas aeruginosa", "details": "3.30 mM cadaverine", "description": "PAO1 Td-tomato or Xen41 cultures were grown similarly to CLSM cultures described above. iPhone 8 images were taken in a controlled well-lit environment. The air-liquid interface was imaged using an Amscope dissecting microscope with an MU500 camera. Xen41 light emission was detected with an IVIS Lumina II system (Caliper LifeSciences) as an indicator of biofilm activity."}, "rats": {"tested_on": "rats", "details": "2,000 mg/kg body weight in rats; cited from earlier work"}, "HT29 intestinal cells": {"tested_on": "HT29 intestinal cells", "details": "up to 70 mM in HT29 intestinal cells; cited from earlier work"}, "P. aeruginosa": {"tested_on": "P. aeruginosa", "details": "previous studies; cited from earlier work"}, "[2]": {"details": "PAO1 Td-tomato, cadaverine 24 hrs"}, "[3]": {"details": "pre-formed biofilm: grown 24 hrs, then cadaverine for additional 24 hrs"}}, "note": "Values joined by “and” are separate entries in the source; they are usually repeats but may differ in a detail not shown here. Identical values can stand only once. “Also recorded” adds a separate entry of the source.", "data": [{"compound": "NCCCCCN", "note": "[Cadaverine]", "values": [{"measurement": "bactericidal or bacteriostatic effect", "setting": "P. aeruginosa PAO1; OD600, 0-3.30 mM cadaverine", "result": "not bactericidal; also recorded: did not have a bactericidal or bacteriostatic effect"}, {"measurement": "biofilm accumulation decrease (crystal violet OD590), percent change from control", "setting": "P. aeruginosa PAO1; [2]", "result": 37, "unit": "%"}, {"measurement": "planktonic growth increase (OD600), percent change from control", "setting": "P. aeruginosa PAO1; [2]", "result": 4, "unit": "%"}, {"measurement": "planktonic growth increase (OD600), percent change from control", "setting": "P. aeruginosa PAO1; WT PAO1, 0-3.30 mM cadaverine from initiation, 24 hrs, maximal (3.30 mM)", "result": "20.5±4.2% and 21%"}, {"measurement": "biofilm accumulation (crystal violet OD590) at low concentration", "setting": "P. aeruginosa PAO1; WT PAO1, 25 μM cadaverine, 24 hrs", "result": "increased marginally"}, {"measurement": "biofilm accumulation decrease (crystal violet OD590), percent change from control", "setting": "P. aeruginosa PAO1; [3]", "result": "39.8±2.5% and 40%"}, {"measurement": "planktonic growth increase (OD600), percent change from control", "setting": "P. aeruginosa PAO1; [3]", "result": "5.8±1.8% and 6%"}, {"measurement": "reduction in biofilm accumulation by mean grayscale value", "setting": "[1]", "result": "54.5±26.0% and 55%"}, {"measurement": "reduction in biofilm accumulation by surface area coverage", "setting": "[1]", "result": "79.8±55.1% and 80%"}, {"measurement": "biofilm morphology", "setting": "PAO1 Td-tomato or Xen41; 24 hrs, standing liquid culture, PAO1 Td-tomato", "result": "more aggregate-like, in a pellicle"}, {"measurement": "metabolic state of pellicle biofilm (IVIS luminescence)", "setting": "PAO1 Td-tomato or Xen41; PAO1 Xen41, air-liquid interface", "result": "metabolically active"}, {"measurement": "acute oral toxicity", "setting": "rats", "result": "low acute oral toxicity"}, {"measurement": "cytotoxicity", "setting": "HT29 intestinal cells", "result": "negligible cytotoxicity"}, {"measurement": "effect on effectiveness of β-lactams", "setting": "P. aeruginosa", "result": "enhances the effectiveness of many β-lactams"}]}]}
